≈ marks a conversion by molar mass, not a printed value.
Experiments:
P. aeruginosa = assay: Checkerboard assay (antibiotic + adjuvant combination MIC); format: cell-based, Pseudomonas aeruginosa
[1] = system: P. aeruginosa PAO1 and efflux deficient mutants, MDR/XDR isolates; assay: microbe, parasite or virus in culture; format: cell-based, Pseudomonas aeruginosa
Protocol: Antimicrobial Susceptibility Assay. The in vitro antimicrobial activity of all compounds/antibiotics against a panel of bacteria was evaluated by microbroth dilution method in accordance with the Clinical and Laboratory Standards Institute (CLSI) guidelines (using ATCC strains as quality control strains) (54). […] The broth with or without bacterial cells was used as positive or negative control, respectively.

[2] = system: panel of Gram-positive and Gram-negative bacteria; assay: Antimicrobial susceptibility assay against a panel of bacteria; format: cell-based; conditions: some isolates
Protocol: (§1) Antimicrobial Susceptibility Assay. The in vitro antimicrobial activity of all compounds/antibiotics against a panel of bacteria was evaluated by microbroth dilution method in accordance with the Clinical and Laboratory Standards Institute (CLSI) guidelines (using ATCC strains as quality control strains) (54). Overnight grown bacterial cultures were diluted in saline to achieve a 0.5 McFarland turbidity, followed by 1:50 dilution in Mueller-Hinton broth (MHB) for inoculation to a final concentration of approximately 5×10^5 CFU/mL. […] The lowest concentration that prevented the visible growth of bacteria was defined as the MIC for each antimicrobial agent. The broth with or without bacterial cells was used as positive or negative control, respectively.

[3] = system: A. baumannii ATCC 17978 and resistant mutants; assay: microbe, parasite or virus in culture; format: cell-based, Acinetobacter baumannii; conditions: Acinetobacter baumannii
Protocol: as §1
(§2) Development of Resistance Study. […] Tobramycin and colistin were included as controls. At 24-hour intervals, the cultures were assessed for growth. […] This serial passaging was repeated for 8 days.

[4] = system: MDR/XDR P. aeruginosa, Acinetobacter baumannii, Escherichia coli, Klebsiella pneumoniae, and Enterobacter cloacae; format: cell-based; conditions: tobramycin-susceptible and tobramycin-resistant Gram-negative bacteria strains
Protocol: Next, we investigated whether tobramycin by itself would potentiate novobiocin against Gram-negative bacteria.
Checkerboard Assay. Combination studies with different antibiotics were performed in 96-well plates as previously described (19). Briefly, the antibiotic of interest was serially diluted in MHB along the abscissa while the adjuvant (tobramycin homodimer) was serially diluted in MHB along the ordinate. This creates a 10×7 matrices wherein each well consists of a combination of different antibiotic and adjuvant concentrations. Overnight grown bacterial cultures were diluted in saline to achieve a 0.5 McFarland turbidity, followed by 1:50 dilution in Mueller-Hinton broth (MHB) for inoculation to a final concentration of approximately 5×10^5 CFU/mL. […] MIC was recorded as wells with the lowest concentration of drugs with no bacterial growth. The fractional inhibitory concentration (FIC) for each antibiotic was calculated by dividing the MIC of the antibiotic in the presence of adjuvant by the MIC of the antibiotic alone. Similarly, the FIC of adjuvant was calculated by dividing the MIC of the adjuvant in the presence of antibiotic by the MIC of the adjuvant alone. FIC index is the sum of both FICs. FIC indices of ≤0.5 were deemed synergistic; >0.5-4, no interaction; and >4, antagonistic.

P. aeruginosa PAO1 = assay: Outer membrane permeabilization assay (NPN uptake); format: cell-based, Pseudomonas aeruginosa
Protocol: Outer Membrane Permeabilization Assay. […] Briefly, an overnight grown P. aeruginosa PAO1 culture was subcultured (1 in 100) in fresh LB broth and grown to a mid-logarithmic phase (approximately 2 h, OD600=0.5-0.6). The cells were harvested by centrifuging for 10 min at 1000 g and room temperature, washed twice in PBS, and resuspended in half volume of PBS. This suspension was used in standard microtiter plate assay. […] PMBN, a known outer membrane permeabilizer, served as a positive control while cells +NPN (without test compounds) served as a negative control. Four independent replicates were conducted, and the data were corrected for any background fluorescence.

A. baumannii ATCC 17978 = assay: microbe, parasite or virus in culture; format: cell-based, Acinetobacter baumannii
Protocol: as §2

[5] = P. aeruginosa PAO1, compound at 8 μM
[6] = PA 262-101856, compound at 8 μM
[7] = PA 264-104354, compound at 8 μM
[8] = PA O200 (efflux-deficient), compound at 8 μM
[9] = PA O750 (efflux-deficient), compound at 8 μM
[10] = tobramycin-resistant MDR/XDR isolates

Protocol for porcine erythrocytes: Hemolytic Assay. The hemolytic activities of the newly synthesized compounds were determined and quantified as the amount of hemoglobin released by lysing porcine erythrocytes. […] The final cell concentration used was 3×10^8 cells/mL. Compounds were serially diluted with PBS and added to wells in a 96-well plate at twice the desired concentrations. […] Intact erythrocytes were subsequently pelleted by centrifuging at 1000 g at 4° C. for 10 mins, and the supernatants were transferred to a new 96-well plate. […] Blood cells in PBS (0% hemolysis) and 0.1% Triton X-100 (100% hemolysis) were used as negative and positive controls, respectively. Percent hemolysis was calculated as [% hemolysis=(X−0%)/(100%−0%)], where X is the optical density values of the compounds at different concentrations (49).

SMILES: NC[C@H]1O[C@H](O[C@H]2[C@H](OCCCCCCCCn3cc(CCCCO[C@@H]4[C@@H](O[C@H]5O[C@H](CO)[C@@H](O)[C@H](N)[C@H]5O)[C@H](N)C[C@H](N)[C@H]4O[C@H]4O[C@H](CN)[C@@H](O)C[C@H]4N)nn3)[C@@H](O[C@H]3O[C@H](CO)[C@@H](O)[C@H](N)[C@H]3O)[C@H](N)C[C@@H]2N)[C@H](N)C[C@@H]1O.O=C(O)C(F)(F)F.O=C(O)C(F)(F)F.O=C(O)C(F)(F)F.O=C(O)C(F)(F)F.O=C(O)C(F)(F)F.O=C(O)C(F)(F)F.O=C(O)C(F)(F)F.O=C(O)C(F)(F)F.O=C(O)C(F)(F)F.O=C(O)C(F)(F)F [Compound 3, Tobramycin Homodimer 3]
- hemolysis of porcine erythrocytes (porcine erythrocytes): non-hemolytic

SMILES: N=C(N)NC[C@H]1O[C@H](O[C@H]2[C@H](OCCCCCCCCCCCCN3CCN(c4cc5c(cc4F)c(=O)c(C(=O)O)cn5C4CC4)CC3)[C@@H](O[C@H]3O[C@H](CO)[C@@H](O)[C@H](NC(=N)N)[C@H]3O)[C@H](NC(=N)N)C[C@@H]2NC(=N)N)[C@H](NC(=N)N)C[C@@H]1O [Compound 27, Guanidinylated Tobramycin-Ciprofloxacin Conjugate]
- MIC of Aztreonam + compound (P. aeruginosa; [5]): 0.5 µg/mL
- MIC of Ceftazidime + compound (P. aeruginosa; [5]): 0.25 µg/mL
- MIC of Imipenem + compound (P. aeruginosa; [5]): 1 µg/mL
- MIC of Piperacillin + compound (P. aeruginosa; [5]): 8 µg/mL
- MIC of ATM in the presence of compound (P. aeruginosa; PA 259-96918, compound at 8 μM): 32 µg/mL
- MIC of CAZ in the presence of compound (P. aeruginosa; PA 259-96918, compound at 8 μM): 512 µg/mL
- MIC of IPM in the presence of compound (P. aeruginosa; PA 259-96918, compound at 8 μM): 64 µg/mL
- MIC of ATM in the presence of compound (P. aeruginosa; PA 260-97103, compound at 8 μM): 8 µg/mL
- MIC of CAZ in the presence of compound (P. aeruginosa; PA 260-97103, compound at 8 μM): 16 µg/mL
- MIC of IPM in the presence of compound (P. aeruginosa; PA 260-97103, compound at 8 μM): 8 µg/mL
- MIC of ATM in the presence of compound (P. aeruginosa; [6]): 32 µg/mL
- MIC of CAZ in the presence of compound (P. aeruginosa; [6]): 16 µg/mL
- MIC of IPM in the presence of compound (P. aeruginosa; [6]): 16 µg/mL
- MIC of ATM in the presence of compound (P. aeruginosa; [7]): 32 µg/mL
- MIC of CAZ in the presence of compound (P. aeruginosa; [7]): 128 µg/mL
- MIC of IPM in the presence of compound (P. aeruginosa; [7]): 16 µg/mL
- MIC of ATM in the presence of compound (P. aeruginosa; PA 86052, compound at 8 μM): 32 µg/mL
- MIC of CAZ in the presence of compound (P. aeruginosa; PA 86052, compound at 8 μM): 32 µg/mL
- MIC of IPM in the presence of compound (P. aeruginosa; PA 86052, compound at 8 μM): 16 µg/mL
- MIC of ATM in the presence of compound (P. aeruginosa; PA 88949, compound at 8 μM): 32 µg/mL
- MIC of CAZ in the presence of compound (P. aeruginosa; PA 88949, compound at 8 μM): 32 µg/mL
- MIC of IPM in the presence of compound (P. aeruginosa; PA 88949, compound at 8 μM): 64 µg/mL
- MIC of ATM in the presence of compound (P. aeruginosa; PA 91433, compound at 8 μM): 16 µg/mL
- MIC of CAZ in the presence of compound (P. aeruginosa; PA 91433, compound at 8 μM): 4 µg/mL
- MIC of IPM in the presence of compound (P. aeruginosa; PA 91433, compound at 8 μM): 8 µg/mL
- MIC of ATM in the presence of compound (P. aeruginosa; PA 100036, compound at 8 μM): 16 µg/mL
- MIC of CAZ in the presence of compound (P. aeruginosa; PA 100036, compound at 8 μM): 6 µg/mL
- MIC of IPM in the presence of compound (P. aeruginosa; PA 100036, compound at 8 μM): 4 µg/mL
- MIC of ATM in the presence of compound (P. aeruginosa; PA 101243, compound at 8 μM): 4 µg/mL
- MIC of CAZ in the presence of compound (P. aeruginosa; PA 101243, compound at 8 μM): 16 µg/mL
- MIC of IPM in the presence of compound (P. aeruginosa; PA 101243, compound at 8 μM): 4 µg/mL
- MIC of ATM in the presence of compound (P. aeruginosa; PA 101885, compound at 8 μM): 4 µg/mL
- MIC of CAZ in the presence of compound (P. aeruginosa; PA 101885, compound at 8 μM): 2 µg/mL
- MIC of IPM in the presence of compound (P. aeruginosa; PA 101885, compound at 8 μM): 2 µg/mL
- MIC of ATM in the presence of compound (P. aeruginosa; PA 107092, compound at 8 μM): 32 µg/mL
- MIC of CAZ in the presence of compound (P. aeruginosa; PA 107092, compound at 8 μM): 32 µg/mL
- MIC of IPM in the presence of compound (P. aeruginosa; PA 107092, compound at 8 μM): 32 µg/mL
- MIC of ATM in the presence of compound (P. aeruginosa; PA 108590, compound at 8 μM): 2 µg/mL
- MIC of CAZ in the presence of compound (P. aeruginosa; PA 108590, compound at 8 μM): 2 µg/mL
- MIC of IPM in the presence of compound (P. aeruginosa; PA 108590, compound at 8 μM): 4 µg/mL
- MIC of ATM in the presence of compound (P. aeruginosa; PA 109084, compound at 8 μM): 32 µg/mL
- MIC of CAZ in the presence of compound (P. aeruginosa; PA 109084, compound at 8 μM): 32 µg/mL
- MIC of IPM in the presence of compound (P. aeruginosa; PA 109084, compound at 8 μM): 16 µg/mL
- MIC of ATM in the presence of compound (P. aeruginosa; PA 114228, compound at 8 μM): 8 µg/mL
- MIC of CAZ in the presence of compound (P. aeruginosa; PA 114228, compound at 8 μM): 2 µg/mL
- MIC of IPM in the presence of compound (P. aeruginosa; PA 114228, compound at 8 μM): 1 µg/mL
- MIC of ATM in the presence of compound (P. aeruginosa; [8]): 0.06 µg/mL
- MIC of CAZ in the presence of compound (P. aeruginosa; [8]): 0.25 µg/mL
- MIC of IPM in the presence of compound (P. aeruginosa; [8]): 2 µg/mL
- MIC of ATM in the presence of compound (P. aeruginosa; [9]): 0.06 µg/mL
- MIC of CAZ in the presence of compound (P. aeruginosa; [9]): 0.25 µg/mL
- MIC of IPM in the presence of compound (P. aeruginosa; [9]): 1 µg/mL
- MIC of ATM in the presence of compound (P. aeruginosa; PAO1, compound at 8 μM): 0.5 µg/mL
- MIC of CAZ in the presence of compound (P. aeruginosa; PAO1, compound at 8 μM): 0.25 µg/mL
- MIC of IPM in the presence of compound (P. aeruginosa; PAO1, compound at 8 μM): 1 µg/mL
- MIC ([1]; PA0750 (efflux-deficient)): 2 µg/mL (≈ 1.7 µM)
- MIC ([1]; PAO1 (wild-type)): 32 µg/mL (≈ 27.2 µM)
- MIC ([1]; PAO200 (second column so headed)): 16 µg/mL (≈ 13.6 µM)
- intrinsic antimicrobial activity [2]: some modest residual activity

SMILES: NC[C@H]1O[C@H](O[C@H]2[C@H](O)[C@@H](O[C@H]3O[C@H](CO)[C@@H](O)[C@H](N)[C@H]3O)[C@H](N)C[C@@H]2N)[C@H](N)C[C@@H]1O [Tobramycin]
- interaction with antibiotics (checkerboard) (P. aeruginosa; PAO1, all antibiotics tested except tobramycin, vancomycin and colistin): not synergistic
- FICI with ceftazidime or aztreonam (P. aeruginosa; [10]): 0.56-0.75
- tobramycin concentration at which synergy with imipenem was observed (P. aeruginosa; [10]): ≥ 100 µM
- FICI with aztreonam, ceftazidime and imipenem (P. aeruginosa; tobramycin-susceptible MDR isolates): 0.75
- FICI with aztreonam, ceftazidime and imipenem (P. aeruginosa; wildtype P. aeruginosa): 0.75-1.00
- MIC ([1]; Pseudomonas aeruginosa): 1 µg/mL (≈ 2.14 µM)
- MIC ([1]; Pseudomonas aeruginosa, PAO200 (first column so headed)): 1 µg/mL (≈ 2.14 µM)
- MIC ([1]; Pseudomonas aeruginosa, PAO200 (second column so headed)): 1 µg/mL (≈ 2.14 µM)
- MIC ([3]; ATCC17978, 18 h, Mutant C (seven serial passages, sub-MICs novobiocin + 7.1 μM compound 1)): 1 µg/mL
- MIC ([3]; ATCC17978, Mutant A (seven serial passages, sub-MICs novobiocin)): 1 µg/mL (≈ 2.14 µM)
- MIC ([3]; ATCC17978, Mutant B (seven serial passages, sub-MICs colistin)): 0.25 µg/mL (≈ 0.535 µM)
- MIC ([3]; ATCC17978, Wild-type A. baumannii ATCC 17978): 1 µg/mL (≈ 2.14 µM)
- FICI with novobiocin [4]: 0.75
- outer membrane permeabilization (NPN fluorescence) (P. aeruginosa PAO1): weak fluorescence
- MIC (A. baumannii ATCC 17978; Acinetobacter baumannii, ATCC17978, 168 h, read-out: MIC after serial passaging): 512 µg/mL (≈ 1100 µM)
- fold change in MIC (A. baumannii ATCC 17978; after 7 days of serial passaging): 512 fold

Source: US20220249441A1, “Homodimeric Tobramycin Adjuvant Repurposes Novobiocin as an Effective Antibacterial Agent Against Gram-Negative Bacteria” (priority 2019, published 2022)
